Data published in patent publication US20240391870A1 (Arcturus Therapeutics, Inc., priority 2023, published 2024).
Where two headings read alike, the source gives them in different places.

What was measured:
factor VII = assay: Factor VII knock down evaluation (LNP with FVII siRNA); format: in vivo, Balb/C mice; conditions: Table 3; 0.03 mg/kg
In short: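 Female Balb/C mice, 7–8 weeks old, received FVII siRNA lipid nanoparticles intravenously at 0.03 or 0.01 mg/kg. Plasma was collected 48 h later and FVII protein measured by chromogenic assay at 405 nm against a control plasma calibration curve. Levels are relative to saline-treated controls.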

[1] = Lipid nanoparticle size, PDI and encapsulation; format: physicochemical; conditions: Table 3; for Size (nm): lipid nanoparticle; for EE %: lipid nanoparticle encapsulation
Procedure: In the context of nucleic acids, full encapsulation may be determined by performing a membrane-impermeable fluorescent dye exclusion assay, which uses a dye that has enhanced fluorescence when associated with nucleic acid. Encapsulation is determined by adding the dye to a lipid formulation, measuring the resulting fluorescence, and comparing it to the fluorescence observed upon addition of a small amount of nonionic detergent. Detergent-mediated disruption of the lipid layer releases the encapsulated nucleic acid, allowing it to interact with the membrane-impermeable dye. Nucleic acid encapsulation may be calculated as E=(I0−I)/I0, where I and I0 refer to the fluorescence intensities before and after the addition of detergent.

[2] = Lipid nanoparticle size, PDI and encapsulation; format: physicochemical; conditions: Table 3
[3] = mouse, in vivo
Procedure: (§1) In vivo biodegradability assay was performed to assess the biodegradability of lipids in the LNP. Briefly, mice were injected with either 0.1 or 0.03 mg/Kg dose and after 24 or 48 hours mice livers were collected. To measure the concentration of lipids in the mouse liver, liver samples were homogenized in appropriate buffer in 1-10 dilution and mixed with the same amount of stabilized plasma. The samples were then mixed with organic solvents spiked with internal standard to precipitate proteins. After centrifugation, supernatant was diluted further with organic solvent before sample analysis by LC-MS. In LC-MS analysis, positive electrospray ionization was used, and multiple reaction monitoring (MRM) parameters were set up to specifically target the lipid analyte and internal standard. Calibration standards were prepared in stabilized plasma and mixed with same amount of homogenization buffer before protein precipitation. Quality control samples with known amounts of lipid was prepared in blank liver homogenate to monitor the precision and accuracy of the assay.

hEPO = hEPO mRNA expression evaluation (hEPO-LNPs); format: in vivo, Balb/c mice; conditions: Table 3; 0.3 mg/kg
[4] = Measured pKa in the indicated formulation
Procedure: Measured pKa values were determined based on the pH measured in the indicated formulation (i.e., EPO or FVII formulation).

[5] = In vivo biodegradability assay (lipid in liver); conditions: Table 3; liver tissue, 0.3 mg/kg dose
Procedure: as §1

| SMILES | FVII KD % @ 0.03 mg/kg (factor VII) [%] | Size (nm) [1] [nm] | EE % [1] [%] | PDI [2] | Invivo lipid degradability ng/g of Liver tissue @ 0.3 mg/kg dose [3] [ng/g] | EPO expression in ng/mL @ 0.3 mg/kg (hEPO) [ng/mL] | pKa [4] | Invivo lipid degradability ng/g of Liver tissue @ 0.3 mg/kg dose [5] [ng/g] |
| --- | --- | --- | --- | --- | --- | --- | --- | --- |
| Cc1ccc(CCC(C)C(=O)OCC(COC(=O)C(C)CCc2ccc(C)cc2)OC(=O)CCCN(CCCC(=O)OC(COC(=O)C(C)CCc2ccc(C)cc2)COC(=O)C(C)CCc2ccc(C)cc2)C(=O)SCCCN(C)C)cc1 (stereo not shown) [Lipid 63, ((4,4′-((((3-(dimethylamino)propyl)thio)carbonyl)azanediyl)bis(butanoyl))bis(oxy))bis(propane-2,1,3-triyl)tetrakis(2-methyl-4-(p-tolyl)butanoate)] | 76.17 | 82.65 | 85.9 | 0.046 | 603 ± 57.6 | 4601 |  |  |
| CCCCCC(C)(C)C(=O)OCC(C)(COC(=O)CCCN(CCCC(=O)OCC(C)(COC(=O)C(C)(C)CCCCC)COC(=O)C(C)(C)CCCCC)C(=O)SCCCN(C)C)COC(=O)C(C)(C)CCCCC [Lipid 56] | 46.3 | 67.34 | 91.5 | 0.081 |  | 5463.76 | 6.55 | 81900 |
